# Several values for one entry are separate records, joined by “and”; a condition that tells them apart may be missing. Identical values can stand only once. Entries after “also recorded” stand apart in the source; their conditions may differ.
# Key:
# H358 lung tumor cells = assay: Anti-tumor growth activity in lung cancer H358 xenograft mouse model; format: in vivo
# Protocol: H358 lung tumor cells (10×10^6) are implanted by subcutaneous injection in hind leg of nude female mice (Taconic Biosciences). A total of 4 mice in each group are used for the efficacy study. Treatment is initiated with oral administration (gavage) of the test compound or vehicle (20% Captisol®, 25 mM phosphate, pH 2.0 in 0.2 mL volume) once or twice daily for 28 days when the tumor size reaches approximately 300 mg. Tumor growth and body weight are monitored over time to evaluate efficacy and signs of toxicity.
# KYSE-410 = KYSE-410 (esophagus) xenograft model; format: in vivo, mouse
# Protocol: For xenograft models of H1373, HCC44, MiaPaca-2, SW1463, SW837, KYSE-410 and UM-UC-3, typically 5-10×10^6 cells in a 1:1 matrigel mix (0.2 mL total volume) are implanted by subcutaneous injection in hind leg of nude mice. […] Treatment is initiated with oral administration (gavage) of testing compound or vehicle (20% captisol, 25 mM phosphate, pH2.0) in 0.2 mL volume when tumor size reaches approximately 200-300 mg. Tumor growth and body weight are monitored over time to evaluate efficacy and signs of toxicity. For EL3187 PDX model, frozen vials containing tumor fragments are thawed at 37° C. in a water bath. The tumor fragments are transferred to 50 mL Falcon tube and the ice cold DMEM medium is slowly added into the tube to a total volume of 35 mL. Then the tumor fragments are centrifuged at 130×g for 2 minutes at 4° C. and supernatant is aspirated. This washing step is repeated twice and the tumor fragments are resuspended in 10 mL DMEM for implantation into athymic nude-Foxn1nu mice (Envigo RMS, Inc., Mount Comfort, Indiana). Once tumor volumes reach 800 to 1000 mm^3, animals are sacrificed and tumors are harvested using aseptic technique. Fresh tumors are cut into 10 to 15 mm^3 fragments and placed into cold Gibco hibernate medium. The tumor fragments are subcutaneously implanted into animals with a 10 g trochar needle. When tumor size reaches 200 to 300 mm^3, the animals are randomized for compound treatment.
# Among models listed in Table 2, EL3187 is a patient-derived xenograft (PDX) model, and all other are tumor xenograft models.
# [1] = tested on: KRAS G12C-mutant advanced NSCLC; assay: NCT04956640 Phase 1b Cohort B4 (with pembrolizumab) clinical response (BOR, ORR, DCR, DOR, TTR, % change from baseline, treatment duration); format: in vivo, human; conditions: for Time to response (TTR) 2 to <4 months / Time to response (TTR) <2 months: Phase 1b Cohort B4 responders
# Protocol: The term “BOR” as used herein refers to best overall response based on investigator assessments using RECIST criteria (version 1.1). The minimum duration for BOR of SD is at least 6 weeks after the date of first dose of study drug.
# The term “DOR” as used herein refers to duration of response, wherein DOR in months is calculated as the event or censoring date minus the response start date plus 1 day divided by 30.4375.
# The term “ORR” as used herein refers to objective response rate, wherein objective response rate is the proportion of patients with BOR of CR or PR. Objective response rate, unconfirmed, is the proportion of patients with BOR of CR, PR, or uPR.
# The term “TTR” as used herein refers to time to response, wherein TTR in months is calculated as response start date minus first dose date plus 1 day divided by 30.4375.
# [2] = tested on: KRAS G12C-mutant advanced solid tumors; assay: NCT04956640 Phase 1a, Phase 1b Cohort B4 and Cohort C2 pooled statements
# Source text: NCT04956640 includes Phase 1a dose escalation (Part A of NCT04956640, see Table 3) followed by a Phase 1b dose expansion (Parts B to E of NCT04956640, see Table 4). […] Phase 1b dose expansion will include 12 cohorts (See Table 4) to further evaluate safety and clinical activity.
# [3] = Phase 1b Cohort B4, Total (N = 13)
# [4] = Phase 1b Cohort B4, individual patients, starting dose 50 BID, prior KRAS G12Ci Y
# [5] = Phase 1b Cohort B4, individual patients, starting dose 100 BID, no prior KRAS G12Ci, listed as compound of Formula I
# [6] = Phase 1b Cohort B4, individual patients, starting dose 150 BID, no prior KRAS G12Ci, listed as compound of Formula I
# [7] = Phase 1b Cohort B4, individual patients, starting dose 150 BID, prior KRAS G12Ci Y, listed as compound of Formula I
# [8] = Phase 1b Cohort B4, starting dose 50 mg BID (N = 1)
# [9] = Phase 1b Cohort B4, starting dose 100 mg BID (N = 6)
# [10] = Phase 1b Cohort B4, starting dose 150 mg BID (N = 6)
# [11] = starting dose 50 mg BID (N = 1)
# [12] = starting dose 100 mg BID (N = 6)
# [13] = starting dose 150 mg BID (N = 6)
smiles,measurement,setting,value
"C=CC(=O)N1CCN2C(=O)c3cc(F)c(-c4ccc(F)c5sc(N)c(C#N)c45)c(Cl)c3OCC[C@H]2C1 (single isomer, unassigned) [Formula I]",% Regression (Day 12),"H358 lung tumor cells; 30 mg/kg PO, BID",−72.14%
same,% Regression (Day 26),"H358 lung tumor cells; 30 mg/kg PO, BID",−67.68%
same,% tumor regression,H358 lung tumor cells; 30 mg/kg twice daily,−67.68 to −72.14%
same,animal body weight loss,H358 lung tumor cells; through the whole study,No significant animal body weight loss
same,tumor growth inhibition (%) or regression (− %),KYSE-410; 10 mg/kg BID x28,51.5%
same,tumor growth inhibition (%) or regression (− %),KYSE-410; 10 mg/kg QD x28,25.3%
same,tumor growth inhibition (%) or regression (− %),KYSE-410; 30 mg/kg BID x28,61.8%
same,tumor growth inhibition (%) or regression (− %),KYSE-410; 30 mg/kg QD x28,66.7%
same,Duration of response (DOR) <6 months,[1]; 50 mg BID,0 (NE) n (%)
same,Patients with best overall response of CR or PR,[1]; 50 mg BID (N = 1),0 (0.0) N′ (%)
same,Duration of response (DOR) <6 months,[1]; 100 mg BID,2 (100.0) n (%)
same,Patients with best overall response of CR or PR,[1]; 100 mg BID (N = 6),2 (33.3) N′ (%)
same,Duration of response (DOR) <6 months,[1]; 150 mg BID,3 (100.0) n (%)
same,Patients with best overall response of CR or PR,[1]; 150 mg BID (N = 6),3 (50.0) N′ (%)
same,"Best overall response (BOR): Complete Response (CR), %",[1]; [3],(0.0) %
same,"Best overall response (BOR): Not Evaluable (NE), %",[1]; [3],(0.0) %
same,"Best overall response (BOR): Partial Response (PR), %",[1]; [3],(38.5) %
same,"Best overall response (BOR): Partial Response, pending confirmation and ongoing (uPR), %",[1]; [3],(30.8) %
same,"Best overall response (BOR): Progressive Disease (PD), %",[1]; [3],(7.7) %
same,"Best overall response (BOR): Stable Disease (SD), %",[1]; [3],(23.1) %
same,"Disease control rate (CR + PR + IPR + SD), %",[1]; [3],(92.3) %
same,"Objective response rate (CR + PR), %",[1]; [3],(38.5) %
same,"Objective response rate, confirmed and unconfirmed (CR + PR + uPR), %",[1]; [3],(69.2) %
same,Patients with best overall response of CR or PR,[1]; [3],5 (38.5) N′ (%)
same,"Time to response (months), Interquartile range",[1]; [3],0.07 months
same,"Time to response (months), Median",[1]; [3],1.38 months
same,% Change from Baseline in Sum of Diameters for all Target Lesions,[1]; [4],1.1%
same,Time (months) of Progressive Disease,[1]; [4],1.1 months
same,% Change from Baseline in Sum of Diameters for all Target Lesions,[1]; [5],0.0% and −40.9% and −45.1% and −59.4% and −82.8%
same,Best Response,[1]; [5],PR Pending; also recorded: PR Confirmed
same,Time (months) of Partial Response - Confirmed,[1]; [5],1.3 months and 1.1 months
same,Time (months) of Partial Response - Pending Confirmation and Ongoing,[1]; [5],1.3 months and 1.4 months
same,% Change from Baseline in Sum of Diameters for all Target Lesions,"[1]; Phase 1b Cohort B4, individual patients, starting dose 100 BID, prior KRAS G12Ci Y",0.0%
same,% Change from Baseline in Sum of Diameters for all Target Lesions,[1]; [6],−29.5% and −38.2% and −49.2% and −57.7%
same,Best Response,[1]; [6],PR Pending; also recorded: PR Confirmed
same,Time (months) of Partial Response - Confirmed,[1]; [6],1.4 months (2×) and 3.0 months
same,Time (months) of Partial Response - Pending Confirmation and Ongoing,"[1]; Phase 1b Cohort B4, individual patients, starting dose 150 BID, prior KRAS G12Ci Y",1.1 months
same,% Change from Baseline in Sum of Diameters for all Target Lesions,[1]; [7],−32.1% and 7.3%
same,Best Response,[1]; [7],PR Confirmed
same,"Best overall response (BOR): Complete Response (CR), %",[1]; [8],(0.0) %
same,"Best overall response (BOR): Not Evaluable (NE), %",[1]; [8],(0.0) %
same,"Best overall response (BOR): Partial Response (PR), %",[1]; [8],(0.0) %
same,"Best overall response (BOR): Partial Response, pending confirmation and ongoing (uPR), %",[1]; [8],(0.0) %
same,"Best overall response (BOR): Progressive Disease (PD), %",[1]; [8],(100.0) %
same,"Best overall response (BOR): Stable Disease (SD), %",[1]; [8],(0.0) %
same,"Disease control rate (CR + PR + IPR + SD), %",[1]; [8],(0.0) %
same,"Objective response rate (CR + PR), %",[1]; [8],(0.0) %
same,"Objective response rate, confirmed and unconfirmed (CR + PR + uPR), %",[1]; [8],(0.0) %
same,Patients with best overall response of CR or PR,[1]; [8],0 (0.0) N′ (%)
same,"Best overall response (BOR): Complete Response (CR), %",[1]; [9],(0.0) %
same,"Best overall response (BOR): Not Evaluable (NE), %",[1]; [9],(0.0) %
same,"Best overall response (BOR): Partial Response (PR), %",[1]; [9],(33.3) %
same,"Best overall response (BOR): Partial Response, pending confirmation and ongoing (uPR), %",[1]; [9],(33.3) %
same,"Best overall response (BOR): Progressive Disease (PD), %",[1]; [9],(0.0) %
same,"Best overall response (BOR): Stable Disease (SD), %",[1]; [9],(33.3) %
same,"Disease control rate (CR + PR + IPR + SD), %",[1]; [9],(100.0) %
same,"Objective response rate (CR + PR), %",[1]; [9],(33.3) %
same,"Objective response rate, confirmed and unconfirmed (CR + PR + uPR), %",[1]; [9],(66.7) %
same,Patients with best overall response of CR or PR,[1]; [9],2 (33.3) N′ (%)
same,"Time to response (months), Interquartile range",[1]; [9],0.26 months
same,"Time to response (months), Median",[1]; [9],1.22 months
same,"Best overall response (BOR): Complete Response (CR), %",[1]; [10],(0.0) %
same,"Best overall response (BOR): Not Evaluable (NE), %",[1]; [10],0.0%
same,"Best overall response (BOR): Partial Response (PR), %",[1]; [10],(50.0) %
same,"Best overall response (BOR): Partial Response, pending confirmation and ongoing (uPR), %",[1]; [10],(33.3) %
same,"Best overall response (BOR): Progressive Disease (PD), %",[1]; [10],(0.0) %
same,"Best overall response (BOR): Stable Disease (SD), %",[1]; [10],(16.7) %
same,"Disease control rate (CR + PR + IPR + SD), %",[1]; [10],(100.0) %
same,"Objective response rate (CR + PR), %",[1]; [10],(50.0) %
same,"Objective response rate, confirmed and unconfirmed (CR + PR + uPR), %",[1]; [10],(83.3) %
same,Patients with best overall response of CR or PR,[1]; [10],3 (50.0) N′ (%)
same,"Time to response (months), Interquartile range",[1]; [10],1.61 months
same,"Time to response (months), Median",[1]; [10],1.41 months
same,Time to response (TTR) 2 to <4 months,[1]; Total (N = 13),1 (20.0) n (%)
same,Time to response (TTR) <2 months,[1]; Total (N = 13),4 (80.0) n (%)
same,Time to response (TTR) 2 to <4 months,[1]; [11],0 (NE) n (%)
same,Time to response (TTR) <2 months,[1]; [11],0 (NE) n (%)
same,Time to response (TTR) 2 to <4 months,[1]; [12],0 (0.0) n (%)
same,Time to response (TTR) <2 months,[1]; [12],2 (100.0) n (%)
same,Time to response (TTR) 2 to <4 months,[1]; [13],1 (33.3) n (%)
same,Time to response (TTR) <2 months,[1]; [13],2 (66.7) n (%)
same,Duration of response (DOR) <6 months,[1]; Total,5 (100.0) n (%)
same,Patients with best overall response of CR or PR,[1]; Total (N = 13),5 (38.5) N′ (%)
same,median time to response,"[1]; human, in vivo",1.4 month
same,DLTs,[2]; as of January 2023,No DLTs were observed
same,MTD,[2]; as of January 2023,MTD was not reached
same,patients with a grade 3 or greater TEAE,[2]; as of January 2023,four
same,patients with dose reduction due to TRAE,[2]; as of January 2023,one
same,patients with permanent discontinuation due to TRAE,[2]; as of January 2023,one
same,TRAE grade in seven patients who discontinued a prior KRAS G12C inhibitor due to toxicity,[2]; in vivo,≤ 2 grade
same,median time to response,[2]; in vivo,1.4 month

# Source: patent US20240108618A1, “KRAS G12C INHIBITOR DOSING REGIMENS” (Eli Lilly and Company, priority 2022, published 2024)
